Experimental data reported in patent US20160120802A1, “ORALLY-DISINTEGRATING OSELTAMIVIR TABLET AND METHOD FOR PREPARING THE SAME” (priority 2013, published 2016).

Test system: pigeons
Assay: Pigeons vomiting model
Details: intragastric, equivalent to 30 mg oseltamivir per kg
Method: 1. Experimental Animal: Healthy Pigeons (Both Males and Females were Operable), 350±50 g of Weights, Common Grades, and Purchased from a Breeding Base.
70 healthy pigeons were randomly divided into 7 groups and adaptively fed with normal diets for 1 week before the experiment. Diets were prohibited within 4 hrs before the experiment, the room temperature was maintained at between 22 and 24° C., and the feeding environment was kept clean and well ventilated. The pigeons were administered with drugs according to the following groups, the administration dosage corresponded to 30 mg oseltamivir per kg of the pigeon's weight, or the equivalent amount of the starch.
Contrast group A, one group, administered with the raw material of oseltamivir with a dosage equivalent to 30 mg of oseltamivir per kg of the pigeon's weight.
Contrast group B, one group, administered with the polyacrylic acid resin IV with a dosage equivalent to 30 mg of the starch per kg of the pigeon's weight.
Contrast group D, one group, administered with the commercial oseltamivir phosphate capsules manufactured by Roche with a dosage equivalent to 30 mg of oseltamivir per kg of the pigeon's weight.
Observation indexes: latent periods of vomiting (the period from the administration to the first vomiting), vomiting times (occurrences of the vomiting after the drug administration, each occurrence of the vomiting refers to the duration from neck stretching, mouth opening, shrugging, and abdominal contraction of the pigeons to recovery of the quiet state of the pigeons), and vomiting frequencies (referring to the times of neck stretching, mouth opening, shrugging, and abdominal contraction of the pigeons).
The pigeons in each group were taken drugs by intragastric administration with a dosage equivalent to 30 mg of oseltamivir per kg of the pigeon's weight. The latent periods of vomiting (min) after the intragastric administration, as well as the vomiting times and the vomiting frequency in 5 hrs after the intragastric administration were recorded.
In each group, the number of the vomiting pigeons (n) was calculated. For the vomiting pigeons (including vomiting with vomitus and dry vomiting in the absence of vomitus), the latent period of vomiting (min, x±s), the average vomit times, and the average vomit frequencies were calculated, and results were listed in the following table 2.

SMILES: CCOC(=O)C1=CC(OC(CC)CC)C(NC(C)=O)C(N)C1 (stereo not shown) [Contrast group A]
- Note (kind of vomiting): Seven times of vomiting
- Latent period for vomiting (vomiting pigeons, x ± s): 18.9 ± 5.4 min
- Average vomiting times (within 5 hrs) (within 5 hrs): 11.1
- Vomiting frequencies (within 5 hrs, x ± s): 15.8 ± 2.1 times
